# Data reported in patent publication US20050244360A1, “Cosmetic composition for greasy skin care, containing a carboxylic fatty acid or a derivative thereof” (L'OREAL, priority 2003, published 2005).
# Key:
# [1] = test system: sebocytes from an immortalized human line; assay: Reduction of lipogenesis: lipids produced by immortalized human sebocytes, RED NILE dye fluorescence; type: cell-based; settings: for QUANTITY OF LIPIDS MEASURED / REDUCTION IN LIPOGENESIS/CONTROL: 2 days of treatment; for QUANTITY OF LIPIDS MEASURED: control = 100; for REDUCTION IN LIPOGENESIS/CONTROL: vs culture medium control
# Method: The test which was developed consisted of measuring, after 2 days of treatment, the quantity of lipids produced by sebocytes from an immortalized human line (in the presence or absence of active agents). The fluorescence emitted by RED NILE dye was measured at two distinct wavelengths to quantify the amount of characteristic neutral lipids of the sebum. Glucocorticoids are known to reduce the production of sebum in non […] subjects (Leveque, J. L. et al., (1991)). Thus, cortisol was selected as a reference, while the culture medium alone was selected as the control (no supplemental excipient was added either to the cortisol or to the azelaic acid, these latter being dissolved in the culture medium under the test conditions). […] Its activity was moderate compared with the pharmaceutical reference. Nevertheless, it should have a significant cosmetic action in a suitable formulation, if necessary by making repeated applications.
# SZ 95 sebocytes = assay: Tolerability: cytotoxicity by production of LDH in the culture medium; type: cell-based, human; settings: 1 μM
# Method: The tolerability of azelaic acid was measured by measuring the cytotoxicty of the product using SZ 95 sebocytes (Zouboulis, Seltmann et al., 1999). The test conditions were the same as those given in Example 1. The cytotoxicity was measured by the production of LDH in the culture medium.
# cutaneous micrococcaceae = settings: topical gel containing 20% azelaic acid, male subjects with clinical acne; cited from earlier work
# Propionibacterium sp = settings: topical gel containing 20% azelaic acid, male subjects with clinical acne; cited from earlier work
# human keratinocytes = settings: concentrations of the order of 1 mM; cited from earlier work
# sebum excretion = settings: topical 20% azelaic acid gel, individuals with physiological acne; cited from earlier work
# excreted sebum = settings: doses used to treat acne (SKINOREN); subjects with acne, seborrheic skin without acne, normoseborrheic; cited from earlier work
# sebum production = settings: cited from earlier work
Compound,QUANTITY OF LIPIDS MEASURED ([1]; 0.1 μM),REDUCTION IN LIPOGENESIS/CONTROL ([1]; 0.1 μM) [%],sebocyte survival (in words) (SZ 95 sebocytes),LDH VARIATION/CONTROL (SZ 95 sebocytes; same conditions as Example 1) [%],"reduction of the number of cutaneous micrococcaceae, factor (cutaneous micrococcaceae)",effect on sebum production by sebocytes (in words) ([1]; 1 μM),QUANTITY OF LIPIDS MEASURED ([1]; 1 μM),REDUCTION IN LIPOGENESIS/CONTROL ([1]; 1 μM) [%],"reduction in lipid secretion ([1]; 1 μM, model immortalized culture of human sebocytes) [%]",activity compared with the pharmaceutical reference (cortisol) ([1]; azelaic acid 1 μM vs cortisol 0.1 μM),"reduction of the number of Propionibacterium sp, factor (Propionibacterium sp)",effect on proliferation of human keratinocytes (in words) (human keratinocytes),effect on sebum excretion (in words) (sebum excretion),effect on quantity and composition of the excreted sebum (in words) (excreted sebum),ability to reduce sebum production (in words) (sebum production)
C[C@]12CCC(=O)C=C1CC[C@@H]1[C@@H]2[C@@H](O)C[C@@]2(C)[C@H]1CC[C@]2(O)C(=O)CO [Cortisol],71,−29,–,–,–,–,–,–,–,–,–,–,–,–,–
"O=C(O)CCCCCCCC(=O)O [Azelaic acid, azelaic acid]",–,–,improves sebocyte survival,−20,224,inhibits sebum production,93,−7,7,moderate,30,reduces the proliferation of human keratinocytes,did not cause a significant modification in sebum excretion,did not modify either the quantity or the composition of the excreted sebum,inability of azelaic acid to reduce sebum production
